Data as given in patent US11261180B2, “Cyclohexyl acid isoxazole azoles as LPA antagonists” (Bristol-Myers Squibb Company, priority 2017, dated 2022).
Values belong to the molecule of their own block, whether it stands above or below them.

Key:
LPA1 [1] = molecular target: T1, LPA1 (Homo sapiens, UniProt Q92633); assay: LPA1 functional antagonist assay (calcium flux in CHO cells overexpressing human LPA1); format: cell-based; parameters: expressed in transfected cells; host or cells: Chinese hamster ovary (CHO) cells; conditions: CHO cells overexpressing human LPA1, calcium flux induced by 10 nM LPA; read-out: hLPA1 IC50
Experimental: The effectiveness of compounds of the present invention as LPA1 inhibitors can be determined in an LPA1 functional antagonist assay as follows:
Chinese hamster ovary cells overexpressing human LPA1 were plated overnight (15,000 cells/well) in poly-D-lysine coated 384-well microplates (Greiner bio-one, Cat #781946) in DMEM/F12 medium (Gibco, Cat #11039). Following overnight culture, cells were loaded with calcium indicator dye (AAT Bioquest Inc, Cat #34601) for 30 minutes at 37° C. The cells were then equilibrated to room temperature for 30 minutes before the assay. Test compounds solubilized in DMSO were transferred to 384 well non-binding surface plates (Corning, Cat #3575) using the Labcyte Echo acoustic dispense and diluted with assay buffer [[…] with calcium/magnesium (Gibco Cat #14025-092), 20 mM HEPES (Gibco Cat #15630-080) and 0.1% fatty acid free BSA (Sigma Cat #A9205)] to a final concentration of 0.5% DMSO. Diluted compounds were added to the cells by FDSS6000 (Hamamatsu) at final concentrations ranging from 0.08 nM to 5 μM. and were then incubated for 20 min at room temperature at which time LPA (Avanti Polar Lipids Cat #857130C) was added at final concentrations of 10 nM to stimulate the cells. The compound IC50 value was defined as the concentration of test compound which inhibited 50% of the calcium flux induced by LPA alone. IC50 values were determined by fitting data to a 4-parameter logistic equation (GraphPad Prism, San Diego Calif.).

LPA1 [2] = molecular target: T1, LPA1; parameters: host or cells: IPF patients (in vivo); conditions: 26-week clinical trial, IPF patients; cited from earlier work
[3] = tested on: highly peritoneal metastatic pancreatic cancer cell line; conditions: cited from earlier work
CTGF = conditions: MCT cells, co-treatment with LPA; cited from earlier work
UUO mice = conditions: compared with LPA1 (-/-) mice; cited from earlier work
[4] = tested on: human foetal lung fibroblasts; conditions: cited from earlier work
[5] = tested on: pancreatic cancer cell lines; conditions: cited from earlier work
nerve-injured mice = conditions: pretreatment; cited from earlier work

T1 sequence (Q92633 whole entry): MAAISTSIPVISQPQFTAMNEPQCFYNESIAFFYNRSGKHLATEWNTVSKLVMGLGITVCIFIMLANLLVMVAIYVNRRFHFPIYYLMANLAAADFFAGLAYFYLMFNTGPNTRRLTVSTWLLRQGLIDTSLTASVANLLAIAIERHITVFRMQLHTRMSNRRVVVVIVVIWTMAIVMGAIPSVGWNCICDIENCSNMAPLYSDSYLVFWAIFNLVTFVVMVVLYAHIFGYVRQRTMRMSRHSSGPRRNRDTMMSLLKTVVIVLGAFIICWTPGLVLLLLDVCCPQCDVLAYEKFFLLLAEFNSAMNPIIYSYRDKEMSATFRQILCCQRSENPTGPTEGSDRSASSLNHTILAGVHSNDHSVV

Compound: Cc1nc(NCc2c(C)noc2-c2ccc(O[C@H]3CCC[C@H](C(=O)O)C3)cn2)sc1-c1ccccc1 [Example 5]
IC50 (LPA1 [1]): 41 nM

Compound: Cc1noc(-c2ccc(-c3ccc(C4(C(=O)O)CC4)cc3)cc2)c1NC(=O)O[C@H](C)c1ccccc1 [BMS-986020]
rate of FVC (forced vital capacity) decline (LPA1 [2]): significantly reduce the rate of FVC (forced vital capacity) decline

Compound: Cc1noc(-c2ccc(CSCCC(=O)O)cc2)c1NC(=O)OC(C)c1ccccc1Cl (centres unmarked) [Ki16425]
LPA-induced and ascites-induced invasion activity [3]: blocked
LPA induction of CTGF expression (CTGF): almost completely suppressed
renal fibrosis profile in UUO mice (UUO mice): closely resembled the profile of LPA1 (−/−) mice
chemotaxis of human foetal lung fibroblasts induced by BAL from IPF patients [4]: blocked
increased fibroblast chemotactic activity in bronchoalveolar lavage samples of IPF subjects [4]: inhibited
in vitro migration in response to LPA and peritoneal fluid (ascites) from pancreatic cancer patients [5]: effectively blocked

Compound: C[C@@H](N)[C@H]1CC[C@H](C(=O)Nc2ccncc2)CC1 [Example Y-27632]
allodynia and hyperalgesia (nerve-injured mice): completely abolished

More lines, now with the values ahead:

IC50 (LPA1 [1]): 153 nM
Compound: Cc1noc(-c2ccc(O[C@H]3CCC[C@H](C(=O)O)C3)cn2)c1CNc1nc(-c2ccccc2)ns1 [Example 4, (1S,3S)-3-((6-(3-methyl-4-(((3-phenyl-1,2,4-thiadiazol-5-yl)amino)methyl)isoxazol-5-yl)pyridin-3-yl)oxy) cyclohexane-1-carboxylic acid]

IC50 (LPA1 [1]): 486 nM
Compound: Cc1noc(-c2ccc(O[C@H]3CCC[C@H](C(=O)O)C3)cn2)c1CNc1ncc(C(F)(F)F)s1 [Example 6, (1S,3S)-3-((6-(3-methyl-4-(((5-(trifluoromethyl)thiazol-2-yl)amino)methyl)isoxazol-5-yl)pyridin-3-yl)oxy)cyclohexane-1-carboxylic acid]

IC50 (LPA1 [1]): 2470 nM
Compound: CCCc1nnc(NCc2c(C)noc2-c2ccc(O[C@H]3CCC[C@H](C(=O)O)C3)cn2)s1 [Example 1, (1S,3S)-3-((6-(3-methyl-4-(((5-propyl-1,3,4-thiadiazol-2-yl)amino)methyl)isoxazol-5-yl)pyridin-3-yl)oxy)cyclohexane-1-carboxylic Acid]

IC50 (LPA1 [1]): 29 nM
Compound: Cc1nc(-c2onc(C)c2CNc2ncn(-c3ccccc3)n2)ccc1O[C@H]1CCC[C@H](C(=O)O)C1 [Example 7]

IC50 (LPA1 [1]): 712 nM
Compound: Cc1noc(-c2ccc(O[C@H]3CCC[C@H](C(=O)O)C3)cn2)c1CNc1ncc(-c2ccccc2)s1 [Example 3, (1S,3S)-3-((6-(3-methyl-4-(((5-phenyl-thiazol-2-yl)amino)methyl)isoxazol-5-yl)pyridin-3-yl)oxy) cyclohexane-1-carboxylic acid]
